Laboratory results reported in ChEMBL document CHEMBL3045465, “Development of Selective Ligands for Benzodiazepine Receptor Subtypes by Manipulating the Substituents at Positions 3- and 7- of Optically Active BzR Ligands” (Med Chem Res, 2004).
pKi: −log10 of the molar value.

Key:
[1] = species: Homo sapiens; assay: Selectivity ratio of Ki for Homo sapiens (human) recombinant GABAA alpha1beta3gamma2 receptor to Ki for Homo sapiens (human) recombinant GABAA alpha5beta3gamma2 receptor
[2] = molecular target: T1, GABA-A receptor; alpha-1/beta-3/gamma-2 (Homo sapiens, UniProt P14867+P18507+P28472); assay: Displacement of [3H]-Ro 15-1788 from Homo sapiens (human) recombinant GABAA alpha1beta3gamma2 receptor expressed in Ltk- cells after 1 hr by liquid scintillation counting; assay type: cell-based
T1 sequence (P14867 whole entry): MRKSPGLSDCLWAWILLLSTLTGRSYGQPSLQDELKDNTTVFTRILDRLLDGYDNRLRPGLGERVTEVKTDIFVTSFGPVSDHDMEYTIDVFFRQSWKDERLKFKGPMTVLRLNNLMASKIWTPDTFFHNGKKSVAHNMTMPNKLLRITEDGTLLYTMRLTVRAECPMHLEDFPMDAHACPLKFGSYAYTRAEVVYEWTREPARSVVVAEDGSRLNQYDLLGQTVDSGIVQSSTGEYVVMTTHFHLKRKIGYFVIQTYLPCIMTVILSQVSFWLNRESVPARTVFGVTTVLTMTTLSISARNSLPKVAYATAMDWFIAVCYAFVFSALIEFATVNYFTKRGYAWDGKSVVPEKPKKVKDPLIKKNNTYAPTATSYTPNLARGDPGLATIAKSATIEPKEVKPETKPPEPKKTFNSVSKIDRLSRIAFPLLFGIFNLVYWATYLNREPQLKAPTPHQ
T1 sequence (P18507 whole entry): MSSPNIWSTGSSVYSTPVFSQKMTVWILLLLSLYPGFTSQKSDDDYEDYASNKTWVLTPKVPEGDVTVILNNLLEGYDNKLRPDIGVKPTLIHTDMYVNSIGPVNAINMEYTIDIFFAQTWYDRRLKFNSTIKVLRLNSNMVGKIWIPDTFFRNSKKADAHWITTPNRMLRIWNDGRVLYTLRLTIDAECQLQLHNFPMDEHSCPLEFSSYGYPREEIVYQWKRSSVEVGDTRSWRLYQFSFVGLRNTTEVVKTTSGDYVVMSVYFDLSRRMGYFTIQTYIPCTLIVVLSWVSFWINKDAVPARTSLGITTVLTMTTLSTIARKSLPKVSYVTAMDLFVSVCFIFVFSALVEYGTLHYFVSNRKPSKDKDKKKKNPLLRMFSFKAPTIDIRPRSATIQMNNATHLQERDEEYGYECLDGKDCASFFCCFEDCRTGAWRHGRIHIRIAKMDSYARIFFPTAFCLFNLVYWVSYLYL
T1 sequence (P28472 whole entry): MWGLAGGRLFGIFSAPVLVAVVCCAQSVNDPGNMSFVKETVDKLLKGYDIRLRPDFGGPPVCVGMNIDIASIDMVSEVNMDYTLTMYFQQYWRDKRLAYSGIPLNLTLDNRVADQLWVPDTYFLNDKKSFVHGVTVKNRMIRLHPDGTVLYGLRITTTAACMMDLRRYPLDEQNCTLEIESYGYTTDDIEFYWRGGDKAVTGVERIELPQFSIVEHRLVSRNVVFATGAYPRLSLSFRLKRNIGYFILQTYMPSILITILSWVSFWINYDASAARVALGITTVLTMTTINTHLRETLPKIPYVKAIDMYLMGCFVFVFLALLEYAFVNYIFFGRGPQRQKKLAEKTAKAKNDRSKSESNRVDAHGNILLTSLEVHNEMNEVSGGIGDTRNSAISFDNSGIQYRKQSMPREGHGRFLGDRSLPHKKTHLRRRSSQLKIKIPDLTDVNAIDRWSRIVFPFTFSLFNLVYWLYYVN

[3] = molecular target: T2, GABA-A receptor; alpha-5/beta-3/gamma-2 (Homo sapiens, UniProt P18507+P28472+P31644); assay: Displacement of [3H]-Ro 15-1788 from Homo sapiens (human) recombinant GABAA alpha5beta3gamma2 receptor expressed in Ltk- cells after 1 hr by liquid scintillation counting; assay type: cell-based
T2 sequence (P18507 whole entry): T1 sequence (P18507 whole entry)
T2 sequence (P28472 whole entry): T1 sequence (P28472 whole entry)
T2 sequence (P31644 whole entry): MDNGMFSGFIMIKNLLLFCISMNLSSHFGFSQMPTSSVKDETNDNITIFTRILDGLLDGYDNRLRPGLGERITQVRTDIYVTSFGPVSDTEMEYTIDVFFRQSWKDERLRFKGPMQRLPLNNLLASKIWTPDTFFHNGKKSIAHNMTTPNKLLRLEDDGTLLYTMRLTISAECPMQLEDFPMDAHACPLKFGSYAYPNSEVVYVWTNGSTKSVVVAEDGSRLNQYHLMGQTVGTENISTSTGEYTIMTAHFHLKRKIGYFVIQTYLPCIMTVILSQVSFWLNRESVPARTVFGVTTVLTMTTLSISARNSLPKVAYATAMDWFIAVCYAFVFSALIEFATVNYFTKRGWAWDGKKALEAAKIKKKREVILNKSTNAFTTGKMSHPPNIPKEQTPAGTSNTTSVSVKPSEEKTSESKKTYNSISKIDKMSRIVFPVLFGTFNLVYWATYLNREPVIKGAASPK

[4] = molecular target: GABA-A receptor; alpha-6/beta-3/gamma-2 (Homo sapiens, UniProt P18507+P28472+Q16445); assay: Displacement of [3H]-Ro 15-4513 from Homo sapiens (human) recombinant GABAA alpha6beta3gamma2 receptor expressed in Ltk- cells after 1 hr by liquid scintillation counting; assay type: cell-based
[5] = molecular target: T3, GABA-A receptor; alpha-2/beta-3/gamma-2 (Homo sapiens, UniProt P18507+P28472+P47869); assay: Displacement of [3H]-Ro 15-1788 from Homo sapiens (human) recombinant GABAA alpha2beta3gamma2 receptor expressed in Ltk- cells after 1 hr by liquid scintillation counting; assay type: cell-based
T3 sequence (P18507 whole entry): T1 sequence (P18507 whole entry)
T3 sequence (P28472 whole entry): T1 sequence (P28472 whole entry)
T3 sequence (P47869 whole entry): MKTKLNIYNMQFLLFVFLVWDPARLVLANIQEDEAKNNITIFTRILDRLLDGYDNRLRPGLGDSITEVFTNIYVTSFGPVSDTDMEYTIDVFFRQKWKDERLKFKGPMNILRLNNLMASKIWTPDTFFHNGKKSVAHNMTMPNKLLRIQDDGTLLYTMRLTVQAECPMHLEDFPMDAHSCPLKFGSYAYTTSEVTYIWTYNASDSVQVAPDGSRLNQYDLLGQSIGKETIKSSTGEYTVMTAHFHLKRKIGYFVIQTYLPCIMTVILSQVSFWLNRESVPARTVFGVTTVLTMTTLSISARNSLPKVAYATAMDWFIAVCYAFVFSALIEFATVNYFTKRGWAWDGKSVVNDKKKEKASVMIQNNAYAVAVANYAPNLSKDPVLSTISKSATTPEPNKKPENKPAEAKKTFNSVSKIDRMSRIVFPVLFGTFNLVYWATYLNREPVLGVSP

[6] = molecular target: T4, GABA-A receptor; alpha-3/beta-3/gamma-2 (Homo sapiens, UniProt P18507+P28472+P34903); assay: Displacement of [3H]-Ro 15-1788 from Homo sapiens (human) recombinant GABAA alpha3beta3gamma2 receptor expressed in Ltk- cells after 1 hr by liquid scintillation counting; assay type: cell-based
T4 sequence (P18507 whole entry): T1 sequence (P18507 whole entry)
T4 sequence (P28472 whole entry): T1 sequence (P28472 whole entry)
T4 sequence (P34903 whole entry): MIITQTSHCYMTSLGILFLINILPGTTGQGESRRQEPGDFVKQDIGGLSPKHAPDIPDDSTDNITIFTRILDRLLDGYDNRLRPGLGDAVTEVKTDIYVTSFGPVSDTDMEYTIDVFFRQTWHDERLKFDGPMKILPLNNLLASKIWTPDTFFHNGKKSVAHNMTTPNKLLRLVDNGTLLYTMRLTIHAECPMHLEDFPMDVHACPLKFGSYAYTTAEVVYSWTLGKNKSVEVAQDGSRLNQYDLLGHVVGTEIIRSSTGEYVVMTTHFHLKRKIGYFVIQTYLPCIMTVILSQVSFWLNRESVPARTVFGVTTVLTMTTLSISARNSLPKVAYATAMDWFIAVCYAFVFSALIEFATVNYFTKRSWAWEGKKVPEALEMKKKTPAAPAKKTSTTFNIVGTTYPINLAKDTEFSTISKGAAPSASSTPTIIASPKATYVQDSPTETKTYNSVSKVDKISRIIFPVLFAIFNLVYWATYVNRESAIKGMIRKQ

[7] = molecular target: GABA A receptor alpha-4/beta-3/gamma-2 (Homo sapiens, UniProt P18507+P28472+P48169); assay: Displacement of [3H]-Ro 15-4513 from Homo sapiens (human) recombinant GABAA alpha4beta3gamma2 receptor expressed in Ltk- cells after 1 hr by liquid scintillation counting; assay type: cell-based
Chain of GABA A receptor alpha-4/beta-3/gamma-2 (P48169 whole entry, one chain of several): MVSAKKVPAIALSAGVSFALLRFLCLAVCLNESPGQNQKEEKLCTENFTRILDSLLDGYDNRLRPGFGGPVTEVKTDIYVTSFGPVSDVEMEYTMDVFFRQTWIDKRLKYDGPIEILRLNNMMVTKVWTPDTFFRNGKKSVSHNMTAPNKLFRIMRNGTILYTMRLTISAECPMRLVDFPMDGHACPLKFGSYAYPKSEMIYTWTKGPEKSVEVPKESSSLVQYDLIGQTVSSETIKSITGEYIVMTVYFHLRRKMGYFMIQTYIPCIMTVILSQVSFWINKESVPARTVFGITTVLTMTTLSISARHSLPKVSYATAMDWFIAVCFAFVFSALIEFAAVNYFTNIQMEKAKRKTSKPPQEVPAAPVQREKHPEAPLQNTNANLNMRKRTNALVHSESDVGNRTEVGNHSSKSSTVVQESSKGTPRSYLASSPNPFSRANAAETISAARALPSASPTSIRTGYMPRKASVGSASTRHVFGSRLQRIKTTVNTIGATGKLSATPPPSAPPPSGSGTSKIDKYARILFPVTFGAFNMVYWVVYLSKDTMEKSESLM

Chain of GABA-A receptor; alpha-6/beta-3/gamma-2 (Q16445 whole entry, one chain of several): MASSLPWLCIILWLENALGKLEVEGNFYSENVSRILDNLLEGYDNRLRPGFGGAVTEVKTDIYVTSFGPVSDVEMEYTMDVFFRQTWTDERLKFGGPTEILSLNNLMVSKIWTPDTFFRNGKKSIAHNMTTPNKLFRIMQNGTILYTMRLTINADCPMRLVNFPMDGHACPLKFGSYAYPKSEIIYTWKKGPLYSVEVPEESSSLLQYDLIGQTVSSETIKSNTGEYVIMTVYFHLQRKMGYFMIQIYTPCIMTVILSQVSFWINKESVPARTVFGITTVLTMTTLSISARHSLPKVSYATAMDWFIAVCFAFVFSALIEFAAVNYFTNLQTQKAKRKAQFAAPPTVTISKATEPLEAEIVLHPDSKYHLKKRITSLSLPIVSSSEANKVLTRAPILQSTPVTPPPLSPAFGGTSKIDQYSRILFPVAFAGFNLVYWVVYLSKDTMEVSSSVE

CCOC(=O)c1ncn2c1[C@@H]1CCCN1C(=O)c1cc(Br)ccc1-2
Ratio Ki [1]: 49

C#Cc1ccc2c(c1)C(=O)N1CCC[C@H]1c1c(C(=O)OCC(F)(F)F)ncn1-2
pKi [2]: 6.52 | pKi [3]: 8.08 | pKi [4]: 6.49 | pKi [5]: 6.76 | pKi [6]: 6.77 | pKi [7]: 6.46 | Ratio Ki [1]: 36

CCOC(=O)c1ncn2c1[C@@H]1CCCN1C(=O)c1cc(C#C[Si](C)(C)C)ccc1-2
Ratio Ki [1]: 50

CC(C)(C)OC(=O)c1ncn2c1[C@@H]1CCCN1C(=O)c1cc(-c3ccccc3)ccc1-2
pKi [2]: 7.55 | pKi [3]: 7.89 | pKi [4]: < 6.48 | pKi [5]: 6.89 | pKi [6]: 7.23 | pKi [7]: 6.94 | Ratio Ki [1]: 2.2

O=C(OCC(F)(F)F)c1ncn2c1[C@@H]1CCCN1C(=O)c1cc(-c3ccco3)ccc1-2
pKi [2]: 8.15 | pKi [3]: 8.00 | pKi [4]: 6.60 | pKi [5]: 7.26 | pKi [6]: 7.28 | pKi [7]: 7.29 | Ratio Ki [1]: 0.71

CC(C)(C)OC(=O)c1ncn2c1[C@@H]1CCCN1C(=O)c1cc(-c3cccs3)ccc1-2
pKi [2]: 7.80 | pKi [3]: 7.92 | pKi [4]: < 6.48 | pKi [5]: 6.92 | pKi [6]: 6.91 | pKi [7]: 6.92 | Ratio Ki [1]: 1.3

C#Cc1ccc2c(c1)C(=O)N1CCC[C@H]1c1c(C(=O)OCC)ncn1-2
Ratio Ki [1]: 45

O=C(OCC(F)(F)F)c1ncn2c1[C@@H]1CCCN1C(=O)c1ccccc1-2
pKi [2]: 7.47 | pKi [3]: 8.37 | pKi [4]: < 6.48 | pKi [5]: 7.47 | pKi [6]: 7.89 | pKi [7]: < 6.48 | Ratio Ki [1]: 7.9

CC(C)(C)OC(=O)c1ncn2c1[C@@H]1CCCN1C(=O)c1cc(Br)ccc1-2
pKi [2]: 6.82 | pKi [3]: 8.40 | pKi [4]: 7.14 | pKi [5]: 6.91 | pKi [6]: 7.31 | pKi [7]: 7.54 | Ratio Ki [1]: 37.5

O=C(OCC(F)(F)F)c1ncn2c1[C@@H]1CCCN1C(=O)c1cc(-c3ccccc3)ccc1-2
pKi [2]: 6.85 | pKi [3]: < 6.48 | pKi [4]: < 6.48 | pKi [5]: < 6.48 | pKi [6]: < 6.48 | pKi [7]: < 6.48

CCOC(=O)c1ncn2c1[C@@H]1CCCN1C(=O)c1cc(OC)ccc1-2
Ratio Ki [1]: 108

C=Cc1ccc2c(c1)C(=O)N1CCC[C@H]1c1c(C(=O)OCC(F)(F)F)ncn1-2
pKi [2]: 7.03 | pKi [3]: 8.16 | pKi [4]: 6.53 | pKi [5]: 7.26 | pKi [6]: 7.19 | pKi [7]: 6.76 | Ratio Ki [1]: 13.6

C[Si](C)(C)C#Cc1ccc2c(c1)C(=O)N1CCC[C@H]1c1c(C(=O)OCC(F)(F)F)ncn1-2
pKi [2]: < 6.48 | pKi [3]: 6.86 | pKi [4]: < 6.48 | pKi [5]: < 6.48 | pKi [6]: < 6.48 | pKi [7]: < 6.48

O=C(OCC(F)(F)F)c1ncn2c1[C@@H]1CCCN1C(=O)c1cc(Br)ccc1-2
pKi [2]: < 6.48 | pKi [3]: 7.24 | pKi [4]: < 6.48 | pKi [5]: < 6.48 | pKi [6]: 6.61 | pKi [7]: 6.54

C#Cc1ccc2c(c1)C(=O)N1CCC[C@H]1c1c(C(=O)OC(C)(C)C)ncn1-2
pKi [2]: < 6.48 | pKi [3]: 7.40 | pKi [4]: 6.51 | pKi [5]: < 6.48 | pKi [6]: < 6.48 | pKi [7]: 6.67

CC(C)(C)OC(=O)c1ncn2c1[C@@H]1CCCN1C(=O)c1cc(C#C[Si](C)(C)C)ccc1-2
pKi [2]: < 6.48 | pKi [3]: 6.99 | pKi [4]: < 6.48 | pKi [5]: < 6.48 | pKi [6]: < 6.48 | pKi [7]: 6.76

CC(C)(C)OC(=O)c1ncn2c1[C@@H]1CCCN1C(=O)c1cc(-c3ccco3)ccc1-2
pKi [2]: 8.74 | pKi [3]: 8.77 | pKi [4]: 7.34 | pKi [5]: 7.79 | pKi [6]: 7.81 | pKi [7]: 7.94 | Ratio Ki [1]: 1.1

C=Cc1ccc2c(c1)C(=O)N1CCC[C@H]1c1c(C(=O)OC(C)(C)C)ncn1-2
pKi [2]: 7.30 | pKi [3]: 8.62 | pKi [4]: 7.24 | pKi [5]: 7.46 | pKi [6]: 7.59 | pKi [7]: 7.59 | Ratio Ki [1]: 20.8
